Laboratory results as given in US10980805B2, “Aza-pyridone compounds and uses thereof” (Janssen BioPharma, Inc., priority 2013, dated 2021).
Read-outs that look alike come from different tables or passages of the source.

Tests used:
[1] = tested on: Influenza strain A549_A/WSN/33 (H1N1); assay: Influenza antiviral assay (neuraminidase fluorescence readout); type: cell-based, Influenza virus; settings: read-out: % Inhibition (EC50 class, Table 2)
[2] = tested on: influenza strains B/Malaysia/2506/2004 or B/Victoria/504/2000; assay: Influenza B assay (fluorescence-based influenza neuraminidase assay); type: cell-based; settings: Influenza B virus, A549, 20 h; read-out: Potency (EC50)
[3] = molecular target: Full length EN PA (influenza PA endonuclease) (Influenza A virus, UniProt P15659); assay: EN PA FRET inhibition assay; type: biochemical; settings: FRET probe, mean of a minimum of two independent experiments, read-out: Potency (IC50 class, Table 3)
[4] = tested on: Influenza strain A/Port Chalmers/1/73 (H3N2); assay: Combination studies (checker-board, MacSynergy II); type: cell-based, Influenza virus; settings: MDCK cells, three days
[5] = Compound 2 = Rimantadine (M2 Channel-Inhibitor)

Row | SMILES | EC50 ([1]; Influenza A virus) | IC50 [3] | also measured
1 | CN1C[C@H](C2c3ccccc3CCc3ccccc32)n2ncc(=O)c(O)c2C1=O [Compound 7-A] | < 20 µM | < 0.25 µM | EC50 [2]: < 20 µM
2 | CCN1C[C@H](C(c2cccc(F)c2)c2cccc(F)c2)n2ncc(=O)c(O)c2C1=O [Compound 21-A] | < 20 µM | < 0.25 µM | EC50 [2]: < 20 µM
3 | CCN1C[C@H](C(c2cccc(Cl)c2)c2cccc(Cl)c2)n2ncc(=O)c(O)c2C1=O [Compound 39-A] | < 20 µM | < 0.25 µM | EC50 [2]: < 20 µM
4 | CC(C)N1C[C@H](C(c2cccc(F)c2)c2cccc(F)c2)n2ncc(=O)c(O)c2C1=O [Compound 41-A] | < 20 µM | < 0.25 µM | EC50 [2]: < 20 µM
5 | CC(C)N1C[C@H](C(c2cccc(Cl)c2)c2cccc(Cl)c2)n2ncc(=O)c(O)c2C1=O [Compound 68-A] | < 20 µM | < 0.25 µM | EC50 [2]: < 20 µM
6 | COCCN1C[C@H](C(c2cccc(F)c2)c2cccc(F)c2)n2ncc(=O)c(O)c2C1=O [Compound 76-A] | < 20 µM | < 0.25 µM | EC50 [2]: < 20 µM
7 | CN1C[C@H]([C@H](c2ccccc2)n2ccnc2)n2ncc(=O)c(O)c2C1=O [Compound 108-B] | 20 to 100 µM | < 0.25 µM | –
8 | C#Cc1ccn([C@H](c2ccccc2)[C@@H]2CN(C)C(=O)c3c(O)c(=O)cnn32)n1 [Compound 109-A] | < 20 µM | < 0.25 µM | –
9 | C#Cc1ccn([C@@H](c2ccccc2)[C@H]2CN(C)C(=O)c3c(O)c(=O)cnn32)n1 [Compound 109-B] | < 20 µM | < 0.25 µM | –
10 | C#Cc1ccn([C@H](c2ccccc2)[C@H]2CN(C)C(=O)c3c(O)c(=O)cnn32)n1 [Compound 109-C] | < 20 µM | < 0.25 µM | –
11 | C#Cc1ccn([C@@H](c2ccccc2)[C@@H]2CN(C)C(=O)c3c(O)c(=O)cnn32)n1 [Compound 109-D] | < 20 µM | 0.25 to 1 µM | –
12 | C#Cc1ccn(C(c2ccccc2)C2CN(C)C(=O)c3c(O)c(=O)cnn32)n1 (stereo not shown) [Compound 109] | < 20 µM | < 0.25 µM | –
13 | C[C@@H](N1C[C@H](C(c2ccccc2)c2ccccc2)n2ncc(=O)c(O)c2C1=O)C(F)(F)F [Compound 110-A] | < 20 µM | < 0.25 µM | –
14 | CC#Cc1cn(C(c2ccccc2)C2CN(C)C(=O)c3c(O)c(=O)cnn32)cn1 (stereo not shown) [Compound 111] | ≥ 100 µM | 0.25 to 1 µM | –
15 | CC(C)N1C[C@H](C(c2ccccc2)c2ccccc2)n2ncc(=O)c(OC(=O)C3CCCCC3)c2C1=O [Compound 112] | < 20 µM | 0.25 to 1 µM | –
16 | CC(C)N1C[C@H](C(c2ccccc2)c2ccccc2)n2ncc(=O)c(OCOC(=O)C(C)(C)N)c2C1=O [Compound 113-A] | < 20 µM | < 0.25 µM | –
17 | CC(C)N1C[C@@H](C(c2ccccc2)c2ccccc2)n2ncc(=O)c(OCOC(=O)C(C)(C)N)c2C1=O [Compound 113-B] | 20 to 100 µM | 0.25 to 1 µM | –
18 | CC(C)C(=O)Oc1c2n(ncc1=O)[C@@H](C1c3cccc(F)c3CCc3c(F)cccc31)CN(C(C)C)C2=O [Compound 114-A] | < 20 µM | < 0.25 µM | Synergy Volume ([4]; Compound 2 = Amantadine (M2 Channel-Inhibitor)): 86 μM^2%; Synergy Volume ([4]; Compound 2 = Favipiravir (T-705) (Polymerase Inhibitor)): 132 μM^2%; Synergy Volume ([4]; Compound 2 = Oseltamivir (Neuraminidase-Inhibitor)): 205 μM^2%; Synergy Volume ([4]; Compound 2 = Peramivir (Neuraminidase-Inhibitor)): 100 μM^2%; Synergy Volume ([4]; Compound 2 = Ribavirin (Polymerase Inhibitor)): 55 μM^2%; Observed Result [4, 5]: synergistic (volumes in the 25-100 range indicate synergistic behavior); Synergy Volume [4, 5]: 45 μM^2%; Synergy Volume ([4]; Compound 2 = Zanamivir (Neuraminidase-Inhibitor)): 127 μM^2%
19 | CC(C)C(=O)Oc1c2n(ncc1=O)[C@H](C1c3cccc(F)c3CCc3c(F)cccc31)CN(C(C)C)C2=O [Compound 114-B] | < 20 µM | ≥ 1 µM | –
20 | CC(C)C(=O)Oc1c2n(ncc1=O)C(C1c3cccc(F)c3CCc3c(F)cccc31)CN(C(C)C)C2=O (stereo not shown) [Compound 114] | < 20 µM | < 0.25 µM | –
21 | CC#Cc1ccn([C@H](c2ccccc2)[C@@H]2CN(C)C(=O)c3c(O)c(=O)cnn32)n1 [Compound 115-A] | < 20 µM | ≥ 1 µM | –
22 | CC#Cc1ccn([C@@H](c2ccccc2)[C@H]2CN(C)C(=O)c3c(O)c(=O)cnn32)n1 [Compound 115-B] | < 20 µM | < 0.25 µM | –
23 | CC#Cc1ccn([C@H](c2ccccc2)[C@H]2CN(C)C(=O)c3c(O)c(=O)cnn32)n1 [Compound 115-C] | < 20 µM | < 0.25 µM | –
24 | CC#Cc1ccn([C@@H](c2ccccc2)[C@@H]2CN(C)C(=O)c3c(O)c(=O)cnn32)n1 [Compound 115-D] | < 20 µM | ≥ 1 µM | –
25 | CC#Cc1ccn(C(c2ccccc2)C2CN(C)C(=O)c3c(O)c(=O)cnn32)n1 (stereo not shown) [Compound 115] | < 20 µM | < 0.25 µM | –

Row | SMILES | EC50 ([1]; Influenza A virus) | IC50 [3] | also measured
26 | C#Cc1cn(C(c2ccccc2)C2CN(C)C(=O)c3c(O)c(=O)cnn32)cn1 (stereo not shown) [Compound 116] | < 20 µM | < 0.25 µM | –
27 | CCC#Cc1ccn(C(c2ccccc2)C2CN(C)C(=O)c3c(O)c(=O)cnn32)n1 (stereo not shown) [Compound 117] | < 20 µM | < 0.25 µM | –
28 | CC(C)CC(=O)Oc1c2n(ncc1=O)[C@@H](C(c1ccccc1)c1ccccc1)CN(C(C)C)C2=O [Compound 118] | < 20 µM | 0.25 to 1 µM | –
29 | CC(C)N1C[C@H](C(c2ccccc2)c2ccccc2)n2ncc(=O)c(OC(=O)C3CCCC3)c2C1=O [Compound 119] | < 20 µM | < 0.25 µM | –
30 | CC(C)N1C[C@H](C(c2ccccc2)c2ccccc2)n2ncc(=O)c(OC(=O)C3CCOCC3)c2C1=O [Compound 120] | < 20 µM | < 0.25 µM | –
31 | CC(C)N1CC(C2c3ccccc3CSc3ccccc32)n2ncc(=O)c(O)c2C1=O (stereo not shown) [Compound 121] | < 20 µM | < 0.25 µM | –
32 | CCC#Cc1ccn([C@H](c2ccccc2)[C@H]2CN(C)C(=O)c3c(O)c(=O)cnn32)n1 [Compound 122] | < 20 µM | < 0.25 µM | –
33 | CCC#Cc1ccn([C@@H](c2ccccc2)[C@H]2CN(C)C(=O)c3c(O)c(=O)cnn32)n1 [Compound 123] | < 20 µM | < 0.25 µM | –
34 | CCC#Cc1ccn([C@H](c2ccccc2)[C@@H]2CN(C)C(=O)c3c(O)c(=O)cnn32)n1 [Compound 124] | < 20 µM | 0.25 to 1 µM | –
35 | CCC#Cc1ccn([C@@H](c2ccccc2)[C@@H]2CN(C)C(=O)c3c(O)c(=O)cnn32)n1 [Compound 125] | < 20 µM | < 0.25 µM | –
36 | CCC#Cc1ccn(C(c2ccccc2)C2CN(C(C)C)C(=O)c3c(O)c(=O)cnn32)n1 (stereo not shown) [Compound 126] | < 20 µM | < 0.25 µM | –
37 | CC(C)N1C[C@H]([C@H](c2ccccc2)n2ccc(C#N)n2)n2ncc(=O)c(O)c2C1=O [Compound 127-A] | < 20 µM | < 0.25 µM | –
38 | CC(C)N1C[C@H]([C@@H](c2ccccc2)n2ccc(C#N)n2)n2ncc(=O)c(O)c2C1=O [Compound 127-B] | < 20 µM | < 0.25 µM | –
39 | CC(C)N1C[C@H]([C@@H](c2ccccc2)n2ccc(C#N)n2)n2ncc(=O)c(O)c2C1=O [Compound 127-C] | – | 0.25 to 1 µM | EC50 [1]: < 20 µM
40 | CC(C)N1C[C@@H]([C@@H](c2ccccc2)n2ccc(C#N)n2)n2ncc(=O)c(O)c2C1=O [Compound 127-D] | < 20 µM | 0.25 to 1 µM | –
41 | CC(C)N1CC(C(c2ccccc2)n2ccc(C#N)n2)n2ncc(=O)c(O)c2C1=O (stereo not shown) [Compound 127] | < 20 µM | < 0.25 µM | –
42 | CN1C[C@H]([C@@H](c2ccccc2)c2ccccn2)n2ncc(=O)c(O)c2C1=O [Compound 128] | < 20 µM | < 0.25 µM | –
43 | [2H]c1c([2H])c([2H])c(C(c2c([2H])c([2H])c([2H])c([2H])c2[2H])[C@H]2CN(C(C)C)C(=O)c3c(O)c(=O)cnn32)c([2H])c1[2H] [Compound 129] | < 20 µM | < 0.25 µM | –
44 | CN1C[C@@H]([C@@H](c2ccccc2)c2ccccn2)n2ncc(=O)c(O)c2C1=O [Compound 131] | < 20 µM | < 0.25 µM | –
45 | CC(C)N1C[C@H]([C@@H](c2ccccc2)c2ccccn2)n2ncc(=O)c(O)c2C1=O [Compound 132] | < 20 µM | < 0.25 µM | –
46 | CC(C)OC(=O)Oc1c2n(ncc1=O)[C@@H](C(c1ccccc1)c1ccccc1)CN(C(C)C)C2=O [Compound 133] | < 20 µM | ≥ 1 µM | –
47 | CC(C)COC(=O)Oc1c2n(ncc1=O)[C@@H](C(c1ccccc1)c1ccccc1)CN(C(C)C)C2=O [Compound 134] | < 20 µM | ≥ 1 µM | –
48 | CC(C)N1CC(C(c2ccccc2)c2cccnc2)n2ncc(=O)c(O)c2C1=O (stereo not shown) [Compound 135] | < 20 µM | < 0.25 µM | –
49 | CC(C)N1C[C@@H]([C@@H](c2ccccc2)c2ccccn2)n2ncc(=O)c(O)c2C1=O [Compound 138] | < 20 µM | < 0.25 µM | –
